Measured values as given in patent publication US9504729B2, “Antiangiogenic small molecules and methods of use” (The United States of America, as represented by the …, priority 2009, dated 2016).

Tested on: angiogenesis genes in dermal microvascular endothelial cells
Assay: Real time RT-PCR of angiogenesis gene expression during endothelial tube formation
Type: cell-based
Details: 1 μM SM, 24 hours

## COc1ccc(CC2C(=O)NC(C)C(=O)N(C)C3Cc4ccc(cc4)Oc4cc(ccc4O)CC(C(=O)NC(C)C(=O)NC(C)C(=O)N2C)N(C)C3=O)cc1 (centres unmarked) [compound 259969]
  Log2 fold-change of gene expression: 1839: −4.2
  Log2 fold-change of gene expression: 4247: 0.2
  Log2 fold-change of gene expression: 5569: 4.6
  Log2 fold-change of gene expression: 8131: −0.2
  Log2 fold-change of gene expression: 9569: −1.7
  Log2 fold-change of gene expression: 10988: 0.3
  Log2 fold-change of gene expression: 23001: 0.3
  Log2 fold-change of gene expression: 55332: 0.1
  Log2 fold-change of gene expression: 57722: −0.1
  Log2 fold-change of gene expression: 58488: 0.4
  Log2 fold-change of gene expression: 90780: −2.4
  Log2 fold-change of gene expression: 134265: −0.6
  Log2 fold-change of gene expression: AKT1: −1.4
  Log2 fold-change of gene expression: ANGPT1: 1.4
  Log2 fold-change of gene expression: ANGPT2: 0.9
  Log2 fold-change of gene expression: ANGPTL3: 3.6
  Log2 fold-change of gene expression: ANGPTL4: 1.5
  Log2 fold-change of gene expression: ANPEP: 0.2
  Log2 fold-change of gene expression: ANTXR1: −1.4
  Log2 fold-change of gene expression: APOE: 0.8
  Log2 fold-change of gene expression: ARHGEF1: −0.8
  Log2 fold-change of gene expression: Acvrl1: −1.9
  Log2 fold-change of gene expression: Adcy4: −0.6
  Log2 fold-change of gene expression: BAL1: 0.4
  Log2 fold-change of gene expression: BMP1: −0.6
  Log2 fold-change of gene expression: C1orf54: −6.1
  Log2 fold-change of gene expression: CALD1: −0.6
  Log2 fold-change of gene expression: CCL2: 3.6
  Log2 fold-change of gene expression: CCL11: 0.0
  Log2 fold-change of gene expression: CD248: 0.6
  Log2 fold-change of gene expression: CDH5: −1.6
  Log2 fold-change of gene expression: CENTD3: −1.0
  Log2 fold-change of gene expression: CLIC1: 1.8
  Log2 fold-change of gene expression: COL4A3: 3.2
  Log2 fold-change of gene expression: COL18A1: 1.9
  Log2 fold-change of gene expression: COMT: −1.7
  Log2 fold-change of gene expression: CST4: 0.4
  Log2 fold-change of gene expression: CTTNBP2NL: −1.0
  Log2 fold-change of gene expression: CXCL3: 11.6
  Log2 fold-change of gene expression: CXCL5: 10.2
  Log2 fold-change of gene expression: CXCL6: 1.0
  Log2 fold-change of gene expression: CXCL9: 0.5
  Log2 fold-change of gene expression: CXCL10: 2.8
  Log2 fold-change of gene expression: Calcr1: −2.9
  Log2 fold-change of gene expression: Caskin2: −2.3
  Log2 fold-change of gene expression: Ccbp2: 5.6
  Log2 fold-change of gene expression: Cldn5: 0.4
  Log2 fold-change of gene expression: DGKG: 6.1
  Log2 fold-change of gene expression: DKK3: −2.7
  Log2 fold-change of gene expression: DLL4: −4.1
  Log2 fold-change of gene expression: DUT: −1.9
  Log2 fold-change of gene expression: EFNA1: 7.8
  Log2 fold-change of gene expression: EFNA3: 0.3
  Log2 fold-change of gene expression: EFNB2: −6.6
  Log2 fold-change of gene expression: EGF: 0.2
  Log2 fold-change of gene expression: ENG: −0.7
  Log2 fold-change of gene expression: EPHB4: 0.3
  Log2 fold-change of gene expression: EREG: 9.3
  Log2 fold-change of gene expression: ESAM1: −1.6
  Log2 fold-change of gene expression: EXTL3: 0.4
  Log2 fold-change of gene expression: Egf17: −2.3
  Log2 fold-change of gene expression: Ehd4: −0.7
  Log2 fold-change of gene expression: Entpd1: −5.6
  Log2 fold-change of gene expression: Epas1: 1.5
  Log2 fold-change of gene expression: EphB1: 0.6
  Log2 fold-change of gene expression: Erg: −3.9
  Log2 fold-change of gene expression: FGF1: 5.7
  Log2 fold-change of gene expression: FGF2: 2.5
  Log2 fold-change of gene expression: FGFR3: 1.2
  Log2 fold-change of gene expression: FIGF: 0.2
  Log2 fold-change of gene expression: FLT1: −0.7
  Log2 fold-change of gene expression: Fgd5: −0.8
  Log2 fold-change of gene expression: GPCR124: −4.6
  Log2 fold-change of gene expression: GRRP1: 0.6
  Log2 fold-change of gene expression: Grp116: −5.5
  Log2 fold-change of gene expression: HAND2: 1.4
  Log2 fold-change of gene expression: HGF: 1.5
  Log2 fold-change of gene expression: HIF1A: 0.7
  Log2 fold-change of gene expression: HPSE: 2.6
  Log2 fold-change of gene expression: Hspa12b: −10.2
  Log2 fold-change of gene expression: ID1: 1.5
  Log2 fold-change of gene expression: ID3: 2.5
  Log2 fold-change of gene expression: IFNA1: 1.1
  Log2 fold-change of gene expression: IFNB1: 1.6
  Log2 fold-change of gene expression: IFNG: 6.0
  Log2 fold-change of gene expression: IGF1: −2.6
  Log2 fold-change of gene expression: IL1B: 1.3
  Log2 fold-change of gene expression: IL6: 9.4
  Log2 fold-change of gene expression: IL8: 11.3
  Log2 fold-change of gene expression: ITGAV: −0.9
  Log2 fold-change of gene expression: ITGB3: −2.9
  Log2 fold-change of gene expression: Icam1: 2.8
  Log2 fold-change of gene expression: Icam2: 7.5
  Log2 fold-change of gene expression: JAG1: 1.7
  Log2 fold-change of gene expression: KDR: −0.5
